In PMC5688144, “Assay interference and off-target liabilities of reported histone acetyltransferase inhibitors” (Nature Communications, 2017):
Entries after “also recorded” stand apart in the source; their conditions may differ.

What was measured:
[1] = system: panel of proteases, kinases, and phosphatases; assay: Pilot selectivity panel (Reaction Biology); assay type: biochemical; conditions: 10 µM compound
Description: (§1) Selectivity profiles vs. HATs, HDACs, SIRTs, HMTs, proteases, kinases, and phosphatases were performed by Reaction Biology Corporation (Malvern, PA; Fig. 3 and Supplementary Fig. 3). Percent activity was normalized to DMSO-only controls. Reference control compounds were included in each assay.
(§2) Relevant reaction procedures for each target class are briefly summarized (see reactionbiology.com for additional details). HATs: reaction buffer 50 mM Tris–HCl, pH 8.0, 50 mM NaCl, 0.1 mM EDTA, ± 1 mM DTT, 1 mM PMSF, 1% DMSO; substrate [^3H]-acetyl-CoA; reaction time 1 h; end-point measurement. […] HMTs: reaction buffer 50 mM Tris–HCl, pH 8.0, 0.01% Brij35, 1 mM EDTA, 1 mM DTT, 1 mM PMSF, 1% DMSO (EZH2); reaction buffer 50 mM Tris–HCl, pH 7.5, 5 mM EDTA, 0.01% Brij35, 5 mM DTT, 0.1 mM PMSF, 5% glycerol, 1% DMSO; 50 mM Tris–HCl, pH 8.5, 5 mM MgCl2, 50 mM NaCl, 0.01 Brij35, 1 mM DTT, 1% DMSO (G9a); methyl donor 1 μM S-Adenosyl-L-[methyl-^3H]-methionine; substrate 5 μM histone proteins or 0.05 mg mL^−1 nucleosomes; pre-incubation time 10–15 min; reaction time 0.5–1 h; end-point measurement. Caspases: reaction buffer 50 mM HEPES, pH 7.4, 1 M citrate, 100 mM NaCl, 0.01% CHAPS, 0.1 mM EDTA, 10 mM DTT; fluorogenic peptide substrate; pre-incubation time 10 min; reaction time 2 h; time-course measurement. Kinases: reaction buffer 20 mM HEPES, pH 7.5, 10 mM MgCl2, 1 mM EGTA, 0.02% Brij35, 0.02 mg mL^−1 BSA, 0.1 mM Na3VO4, 2 mM DTT, 1% DMSO; substrate [^33P]-ATP; reaction time 2 h; end-point measurement.

[2] = system: Rtt109; conditions: cited from earlier work
[3] = system: MOZ; conditions: @ 10 µM; ref 5 (Supplementary References); cited from earlier work
[4] = system: H3K27ac levels in HEK293T and MCF7 cells; assay: Cellular H3K27ac western blot; assay type: cell-based; conditions: 10 and 30 μM compound
Description: (§3) Cells were cultured in DMEM supplemented with 10% fetal bovine serum (Winsent), penicillin (100 U mL^−1), and streptomycin (100 µg mL^−1). Compounds dissolved in DMSO or matching DMSO-only controls were added to cells for indicated times. Compound effects in cells were determined as described[67] and are outlined below.
For western blot analyses, cells were lysed in lysis buffer (20 mM Tris–HCl, pH 8, 150 mM NaCl, 1 mM EDTA, 10 mM MgCl2, 0.5% Triton X-100 (v/v), 12.5 U mL^−1 benzonase (Sigma), complete EDTA-free protease inhibitor cocktail (Roche)). After 3 min incubation at RT, SDS was added to final 1% concentration (w/v). Total cell lysates were resolved in 4–12% Bis-Tris protein gels (Invitrogen) with MOPS buffer (Invitrogen) and transferred for 1.5 h (80 V) onto PVDF membrane (Millipore) in tris-glycine transfer buffer containing 20% methanol and 0.05% SDS. Blots were blocked for 1 h in blocking buffer (5% milk in 0.1% Tween 20/PBS) and incubated with respective primary antibodies: H3K27ac (1:1000, CST #8173), H3 (1:1000, Abcam #10799), p300 (1:2000, Bethyl #A300-358A), CBP (1:1000, Bethyl #A300-362A), actin (1:3000, Abcam #3280), α-tubulin (1:1000, 12G10 DHSB), and α-tubulin-K40ac (1:2000, Abcam #179484) in blocking buffer overnight at 4 °C. After five washes with 0.1% Tween 20/PBS, the blots were incubated with goat anti-rabbit IgG (IRDye 800-conjugated, LiCor #926-32211) and donkey anti-mouse IgG (IRDye 680-conjugated, LiCor #926-68072) antibodies (1:5000) in Odyssey Blocking Buffer (LiCor) for 1 h at RT and washed with 0.1% Tween 20/PBS. The signal was read on an Odyssey scanner (LiCor) at 800 and 700 nm. Representative uncropped images with molecular weight markers are provided (Supplementary Figs. 9, 12, 13).

[5] = biological target: 200 kinases; assay: Expanded kinase profile (Cerep/Eurofins); assay type: biochemical; conditions: 10 μM compound
Description: Assays were performed using either homogeneous time-resolved fluorescence or LANCE® time-resolved-FRET formats (see cerep.fr for additional details). […] Reference control compounds were included in each assay.

[6] = system: SAS; parameters: method as in ref 5 (Supplementary References); conditions: @ 10 µM; ref 5 (Supplementary References); cited from earlier work
[7] = biological target: T1, PCAF (Homo sapiens, UniProt Q92831); assay: PCAF activity in presence and absence of DTT; assay type: biochemical; conditions: 10 and 100 μM compound
T1 construct: Reaction Biology Corporation (assays run by this contract lab)
T1 sequence (Q92831 whole entry, species assumed): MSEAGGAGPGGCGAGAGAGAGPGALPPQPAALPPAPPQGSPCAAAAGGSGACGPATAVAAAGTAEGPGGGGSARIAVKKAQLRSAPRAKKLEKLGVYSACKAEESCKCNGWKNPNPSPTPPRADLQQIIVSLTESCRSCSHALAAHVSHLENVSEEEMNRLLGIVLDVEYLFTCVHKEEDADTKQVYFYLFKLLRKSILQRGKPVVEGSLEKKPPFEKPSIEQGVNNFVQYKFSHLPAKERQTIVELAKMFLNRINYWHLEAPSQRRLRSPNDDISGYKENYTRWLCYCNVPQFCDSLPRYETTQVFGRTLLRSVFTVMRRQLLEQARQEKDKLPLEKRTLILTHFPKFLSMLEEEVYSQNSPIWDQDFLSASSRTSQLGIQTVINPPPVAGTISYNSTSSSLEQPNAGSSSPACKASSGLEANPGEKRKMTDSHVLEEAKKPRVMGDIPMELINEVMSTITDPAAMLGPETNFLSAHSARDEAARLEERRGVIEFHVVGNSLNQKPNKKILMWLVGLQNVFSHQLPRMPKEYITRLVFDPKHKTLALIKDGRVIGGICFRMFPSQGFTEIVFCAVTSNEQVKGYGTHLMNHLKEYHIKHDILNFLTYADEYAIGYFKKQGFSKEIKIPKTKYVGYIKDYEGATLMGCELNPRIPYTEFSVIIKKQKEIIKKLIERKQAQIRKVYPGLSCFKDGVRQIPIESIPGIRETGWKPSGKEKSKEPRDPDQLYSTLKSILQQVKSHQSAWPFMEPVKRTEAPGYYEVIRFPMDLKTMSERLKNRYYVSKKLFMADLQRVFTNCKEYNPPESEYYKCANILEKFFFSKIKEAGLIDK
Description: as §1
as §2, with “Kinases: reaction buffer 20 mM HEPES, pH 7.5, 10 mM MgCl2, 1 mM EGTA, 0.02% Brij35, 0.02 mg mL^−1 BSA, 0.1 mM Na3VO4, 2 mM DTT, 1% DMSO; substrate [^33P]-ATP; reaction time 2 h; end-point measurement.” left out

[8] = system: MYST2; conditions: cited from earlier work
[9] = system: caspase 3/7 activity in HEK293T and MCF7 cells; assay: Live-cell caspase 3/7 activity; assay type: cell-based; conditions: 24 h after compound addition
Description: (§4) For cell growth analyses, cells were seeded in 96-well plates, treated with compounds for the indicated times, and monitored over time in a live cell Incucyte™ ZOOM imager (Essen Biosciences). To label apoptotic and dead cells, caspase 3/7 activatable DEVD recognition motif NucView™ 488 DNA intercalating dye (1:1000 dilution, Essen Biosciences) and SYTOX™ green nucleic acid stain (1:1000 dilution, Invitrogen) were used respectively, following manufacturer instructions.

[10] = system: HEK293T and MCF7 cells; assay: Membrane permeability (SYTOX green uptake); assay type: cell-based; conditions: for membrane permeability: Sytox green dead-cell dye uptake
Description: as §4

[11] = system: MOF; parameters: method as in ref 19, 26 (Supplementary References); conditions: original report; 26 (Supplementary References); cited from earlier work
[12] = biological target: T2, p300 (Homo sapiens, UniProt Q09472); conditions: read-out: IC50 (µM), p300; original report; 22 (Supplementary References); cited from earlier work
T2 construct: Reaction Biology Corporation (assays run by this contract lab)
T2 sequence (Q09472 whole entry, species assumed): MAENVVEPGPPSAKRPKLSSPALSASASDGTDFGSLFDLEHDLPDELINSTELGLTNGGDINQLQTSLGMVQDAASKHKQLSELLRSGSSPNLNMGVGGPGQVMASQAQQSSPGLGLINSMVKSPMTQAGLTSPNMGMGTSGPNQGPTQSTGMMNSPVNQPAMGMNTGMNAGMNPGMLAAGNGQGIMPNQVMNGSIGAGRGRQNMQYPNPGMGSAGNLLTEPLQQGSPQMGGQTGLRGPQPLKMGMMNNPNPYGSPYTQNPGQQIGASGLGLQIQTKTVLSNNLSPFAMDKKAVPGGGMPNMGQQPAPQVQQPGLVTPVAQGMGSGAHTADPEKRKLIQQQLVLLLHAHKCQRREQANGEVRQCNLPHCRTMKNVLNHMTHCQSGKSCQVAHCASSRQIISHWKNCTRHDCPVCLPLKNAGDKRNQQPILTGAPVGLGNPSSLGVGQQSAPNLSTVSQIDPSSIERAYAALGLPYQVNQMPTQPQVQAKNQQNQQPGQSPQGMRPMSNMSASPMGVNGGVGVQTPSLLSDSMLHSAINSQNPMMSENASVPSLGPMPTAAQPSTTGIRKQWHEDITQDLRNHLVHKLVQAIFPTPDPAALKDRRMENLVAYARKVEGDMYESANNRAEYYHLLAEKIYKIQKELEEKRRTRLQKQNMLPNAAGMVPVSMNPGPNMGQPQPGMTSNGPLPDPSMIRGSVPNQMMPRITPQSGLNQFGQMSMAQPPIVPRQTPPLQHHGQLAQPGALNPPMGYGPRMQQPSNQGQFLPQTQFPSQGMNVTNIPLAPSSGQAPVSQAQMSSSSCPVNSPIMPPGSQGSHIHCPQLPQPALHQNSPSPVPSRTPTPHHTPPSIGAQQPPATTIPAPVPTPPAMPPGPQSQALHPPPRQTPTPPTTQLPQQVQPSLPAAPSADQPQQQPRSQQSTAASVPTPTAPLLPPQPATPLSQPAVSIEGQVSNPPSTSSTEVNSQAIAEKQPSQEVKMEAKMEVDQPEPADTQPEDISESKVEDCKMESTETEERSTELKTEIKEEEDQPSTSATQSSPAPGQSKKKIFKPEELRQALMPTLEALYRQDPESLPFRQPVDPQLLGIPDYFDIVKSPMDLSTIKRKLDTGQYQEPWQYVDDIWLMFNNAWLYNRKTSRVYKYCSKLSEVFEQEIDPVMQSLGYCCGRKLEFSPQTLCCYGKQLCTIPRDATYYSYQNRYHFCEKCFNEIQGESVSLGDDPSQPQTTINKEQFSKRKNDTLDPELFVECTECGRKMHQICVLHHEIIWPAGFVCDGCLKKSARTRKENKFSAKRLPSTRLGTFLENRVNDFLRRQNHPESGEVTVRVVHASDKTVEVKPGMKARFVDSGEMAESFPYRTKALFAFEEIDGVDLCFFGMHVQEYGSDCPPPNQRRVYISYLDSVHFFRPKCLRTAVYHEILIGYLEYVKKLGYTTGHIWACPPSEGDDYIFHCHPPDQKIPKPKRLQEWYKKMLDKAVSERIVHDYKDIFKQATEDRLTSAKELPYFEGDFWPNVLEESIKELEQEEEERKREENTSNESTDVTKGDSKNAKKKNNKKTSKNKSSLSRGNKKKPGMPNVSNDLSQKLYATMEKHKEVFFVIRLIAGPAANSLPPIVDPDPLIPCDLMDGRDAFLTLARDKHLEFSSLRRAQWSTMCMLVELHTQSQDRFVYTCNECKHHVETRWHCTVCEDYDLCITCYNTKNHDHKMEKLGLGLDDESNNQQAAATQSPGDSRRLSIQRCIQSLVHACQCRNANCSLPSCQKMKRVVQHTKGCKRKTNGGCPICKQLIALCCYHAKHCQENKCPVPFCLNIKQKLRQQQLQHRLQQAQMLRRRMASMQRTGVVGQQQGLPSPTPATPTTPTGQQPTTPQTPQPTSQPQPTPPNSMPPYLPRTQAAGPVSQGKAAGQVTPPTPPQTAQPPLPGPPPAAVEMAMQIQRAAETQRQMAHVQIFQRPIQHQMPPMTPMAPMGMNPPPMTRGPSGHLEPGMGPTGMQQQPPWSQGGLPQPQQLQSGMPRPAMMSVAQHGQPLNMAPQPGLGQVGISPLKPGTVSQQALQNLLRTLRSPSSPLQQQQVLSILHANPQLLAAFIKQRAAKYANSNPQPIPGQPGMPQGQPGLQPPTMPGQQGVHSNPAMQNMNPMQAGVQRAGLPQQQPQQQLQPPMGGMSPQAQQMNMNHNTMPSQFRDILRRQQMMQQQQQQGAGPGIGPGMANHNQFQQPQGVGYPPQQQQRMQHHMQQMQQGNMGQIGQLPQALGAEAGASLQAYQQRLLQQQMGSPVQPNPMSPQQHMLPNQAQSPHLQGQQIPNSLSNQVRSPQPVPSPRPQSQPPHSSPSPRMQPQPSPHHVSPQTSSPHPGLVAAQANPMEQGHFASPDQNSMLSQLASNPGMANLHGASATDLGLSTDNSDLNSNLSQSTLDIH

[13] = system: MYST4; conditions: original report; ref 22 (Supplementary References); cited from earlier work
[14] = system: KAT5; parameters: method as in ref 22 (Supplementary References); conditions: original report; ref 22 (Supplementary References); cited from earlier work
[15] = system: HEK293T and MCF7 cells; assay: Cell proliferation by cell confluence; assay type: cell-based; conditions: 30 µM compound; MCF7 and HEK293T cells
Description: as §3, §4

## CC1=NN(c2ccc(C(=O)O)cc2)C(=O)/C1=C/c1ccc(-c2cc(C)c(C)cc2[N+](=O)[O-])o1 [Compound 1, C646]
[1]
  inhibition against the tested kinases and phosphatases: low levels of inhibition
[1]; 17 proteases
  proteases with > 50% inhibition: 7 out of 17
[2]; @ 10 µM, ref 5 (Supplementary References)
  % inhibition, Rtt109: < 10%
[3]
  % inhibition, MOZ: < 10%
[4]
  cellular H3K27ac levels: decreased
[5]
  kinases with >50% inhibition: 26 out of 200
[6]
  % inhibition, SAS: < 10%

## O=c1c2cccnc2sn1Cc1ccc(C(F)(F)F)cc1 [Compound 3, PU141]
[7]
  inhibition of PCAF in the absence of DTT compared with DTT present: notable exceptions
[1]; proteases, kinases, phosphatases
  activity vs. most of the targets tested: little activity

## Cc1cc(O)cc(C)c1C=C1C(=O)N(Cc2ccccc2)C(=O)N(Cc2ccccc2)C1=O [Compound 4, EML425]
[4]
  cellular H3K27ac levels: did not perturb

## COc1ccc(S(=O)(=O)ON=C2C=C(C)C(=O)C(C)=C2)cc1 [Compound 5, L002]
[7]
  inhibition of PCAF in the absence of DTT compared with DTT present: notable exceptions
[8]; @ 100 µM, HotSpot, ref 9 (Supplementary References)
  % inhibition, MYST2: 1%
[4]
  cellular H3K27ac levels: decreased

## O=C1/C(=C/c2ccc(O)c(Br)c2)CCC/C1=C\c1ccc(O)c(Br)c1 [Compound 12, HAT inhibitor II]
[9]
  caspase 3/7 activity: induce; also recorded: dose-dependent increases
[10]
  membrane permeability: increase; also recorded: dose-dependent increases

## CCCCCCCCCCCCCCCc1cccc(O)c1C(=O)O [Compound 14, Anacardic acid]
[4]
  cellular H3K27ac levels: did not perturb

## CCCCCCCc1ccc(CCc2cccc(O)c2C(=O)O)cc1 [Compound 15, MG 149]
[11]
  IC50: 47 µM

## Cc1cc2c(C(C)C)c(O)c(O)c(C=O)c2c(O)c1-c1c(C)cc2c(C(C)C)c(O)c(O)c(C=O)c2c1O [Compound 16, Gossypol]
[12]
  IC50: ~25 µM

## COc1ccc(/C(Cl)=C(/C=O)c2ccc(OC)cc2)cc1 [Compound 18, Windorphen]
[8]; original report, ref 22 (Supplementary References)
  IC50: > 100 µM
[13]
  IC50: > 100 µM
[14]
  IC50: > 100 µM

## CCCC1(c2ccccc2)NC(=O)N(CC(=O)N(C)Cc2c(F)cccc2Cl)C1=O (stereo not shown) [Compound 21, N-[(2-chloro-6-fluorophenyl)methyl]-2-(2,5-dioxo-4-phenyl-4-propylimidazolidin-1-yl)-N-methylacetamide]
[2]; original report, ref 25 (Supplementary References)
  IC50: 0.056 µM

## Plumbagin [Compound 8]
[15]
  cell death by cell confluence studies: causes cell death
[10]; 30 µM compound, MCF7 cells
  cytotoxicity by membrane integrity studies: cytotoxic
[10]
  membrane permeability: increase; also recorded: dose-dependent increases
